# Where a name gives a salt, the structure may show the parent alone. Read-outs that look alike come from different tables or passages of the source.
# Assays:
# U937 cells [1] = test: Experiment 3: PMA inhibition by bisindolymaleimide, escape velocity; type: cell-based; conditions: for average escape velocity / escape velocity, Ave.: four hours; for escape velocity, Ave.: no PMA
# Text: The objective of this experiment was to test the effect of bisindolymaleimide on cells exposed to PMA. Bisindolymaleimide is a Protein Kinase C inhibitor and should block the effect of PMA on U937 cells and their escape velocities. As shown in this and prior experiments, exposure of U937 cells to PMA results in an increase in the escape velocity of the cells. Therefore, it is anticipated that addition of bisindolymaleimide will reduce or eliminate the increase in escape velocity caused by PMA. This has in fact been observed in the data shown below.
# Bisindolymaleimide was tested at two concentrations: 200 ng/ml and 50 ng/ml. Samples not treated with bisindolymaleimide received an equivalent amount of the carrier, MeOH, as a control. […] The concentration of PMA tested was 10 ng/ml. Samples not receiving PMA received DMSO.
# Once the flasks were prepared, they were incubated at 37° C. 5% CO2 for four hours. At the four hour timepoint, 300 μl of cells were removed from each flask and pelleted at 5000 rpm for 5 minutes. The cells were then resuspended in 6 ml PBS/1% BSA and 60 μl trypan blue.
# [2] = tested on: CD11b expression in HL-60 cells; test: FACS CD11b expression profile; type: cell-based; conditions: 1% DMSO
# Description: (§1) Fast scan analysis was also performed on HL-60 cells that were treated with PMA and DMSO. A time course evaluation of PMA treated HL-60 cells was performed with fast scan data taken at 16 hours, 24 hours, 40 hours, and 72 hours post-treatment with 400 ng/ml PMA. A control sample of HL-60 cells was also tested using EtOH as the vehicle for purposes of comparing the differentiated cells with the undifferentiated HL-60 cells. The PMA-treated and control cells were harvested and trypsinized. The samples were then resuspended in PBS/1% BSA. A set of samples was also obtained and left as pellets at 4° C. for subsequent FACS analysis.
# FIG. 145 illustrates a histogram of the travel distance of the control cells as well as the PMA-treated cells at 16 hours, 24 hours, 40 hours, and 72 hours post-treatment. FIG. 146 illustrates the mean travel distances of the control cells as well as the PMA-treated cells at 16 hours, 24 hours, 40 hours, and 72 hours post-treatment. FIG. 147 illustrates the FACS CD11b expression profile in PMA-treated HL-60 cells as well as the control. CD11b is a known marker of cellular differentiation and is expressed on the surface of differentiating cells. […] The data illustrate that Optophoretic analysis can be used as an assay for the detection and quantification of cellular differentiation. […]
# HL-60 cells = test: Cellular differentiation of HL-60, fast scan time course; type: cell-based; conditions: 1% DMSO
# Description: as §1
# A time course evaluation of DMSO treated HL-60 cells was performed with fast scan data taken at 16 hours, 24 hours, 40 hours, and 70 hours post-treatment with 1% DMSO. A control sample of HL-60 cells was also tested for purposes of comparing the differentiated cells with the undifferentiated HL-60 cells. The DMSO-treated and control cells were then harvested and resuspended in PBS/1% BSA. A set of samples was also obtained and left as pellets at 4° C. for subsequent FACS analysis.
# [3] = tested on: Erythromycin-resistant strain; test: Bacterial screen for drug sensitivity, escape velocity, resistant strain; type: cell-based, Staphylococcus aureus; conditions: 5 μg/ml Erythromycin (FIG. 80)
# Description: (§2) In this experiment, escape velocity was measured over time in wild type Staphylococcus aureus and an Erythromycin-resistant strain. 5 μg/ml of Erythromycin was applied to both the wild type Staphylococcus aureus and an Erythromycin-resistant strain. Escape velocity measurements were taken at time zero, 30 minutes post-treatment, and 3 hours post-treatment. […] In this experiment, however, escape velocity measurements were made at time zero, 30 minutes post-treatment, and 1 hour post-treatment, and 2 hours post-treatment. A reduction in escape velocity of the Erythromycin-sensitive strain can be seen at 1 hour post-treatment.
# [4] = tested on: wild type Staphylococcus aureus; test: Bacterial screen for drug sensitivity, escape velocity, sensitive strain; type: cell-based
# Description: as §2
# [5] = tested on: K562, BV-173, EM-3, and U-937 cells; test: Experiment 8: effect of Gleevec, escape velocity; type: cell-based; conditions: 72 hours after exposure, all four cell types
# Text: The U-937 cells have no copies of the gene. The K-562 line of cells has, on average, one copy of the gene per cell. The BV-173line of cells has, on average, three copies of the gene per cell. The EM-3 cell line has, on average, five copies of the gene per cell. […] FIG. 44 illustrates the measured escape velocities (average) for each of the four cell types. […] In addition, the decrease in escape velocity for the Gleevec-treated cells was more pronounced in those cell lines that had higher copy numbers of the Bcr-Abl gene.
# EM-3 cells = test: Experiments 9 and 9.1: Gleevec and other kinase inhibitors, fast scan; type: cell-based; conditions: for Mean Distance: 1 μM, 48 hours of exposure
# Description: A second group of cells were treated with 1 μM Src-Family Protein Tyrosine Kinase Inhibitor Set, obtained from CALBIOCHEM (Cat. No. 567816). The Src Set contained four inhibitors, namely, Genistein, Herbimycin A, Streptomyces sp., PP2, and PP3. A third group of cells were treated with 1 μM Staurosporine. A fourth group of cells were treated with 1 μM TK Inhibitor Set, also obtained from CALBIOCHEM (Cat. No. 657021). The TK Inhibitor Set contained five inhibitors, Genistein, PP2, AG490, AG1296, and AG1478. […] Measurements were taken after 48 hours of exposure.
# Fast scan analysis was performed after 48 hours of incubation.
# Jurkat cells = test: Experiment 5: TNF-α effect, escape velocity; type: cell-based; conditions: TNF inhibitor added with TNF (FIG. 36)
# Description: After 48 hours of incubation, the cells were removed and centrifuged for 5 minutes at 5,000 rpm. Then the cells were resuspended in PBS/1% BSA and trypan blue. A higher power setting, 140 mW instead of 100 mW, was used for this experiment. The escape velocities were measured as follows:
# In this experiment Leflunomide and Silymarin were added with TNF to see if the anticipated increase in escape velocity measurements could be counteracted by the presence of the TNF inhibitors.
# U937 cells [6] = tested on: U937 cells
# Description: This experiment is designed to compare the effects of two concentrations of sodium salicylate on U937 cells. Sodium salicylate was prepared at two concentrations: 20 mM and 5 mM. The escape velocities of the cells was tested at 5 hours, 24 hours and 47 hours. At each timepoint, 30 μl of sample was pelleted at 5,000 rpm for 5 minutes and then resuspended in PBS/1% BSA and trypan blue.
# Chang liver cells [7] = type: cell-based; conditions: human, 1 μm
# Description: (§3) This experiment is designed to test the effect of ketoconazole on human liver cells. Ketoconazole induces toxicity in liver cells. The sample cells were Chang liver cells. The concentration of ketoconazole used to treat the cells was 1 μm. Escape velocity and fast scan protocols were applied to determine the impact, if any, of ketoconazole treatment. […] Consequently, Optophoresis was able to detect an effect on the escape velocity of treated cells within 1.5 hours of exposure to ketoconazole. FIGS. 44-45 show the fast scan results of ketoconazole-treated Chang liver cells. […] The ketoconazole-treated cells generally traveled a smaller distance as compared to the non-treated control.
# Chang liver cells [8] = test: Experiment 10: toxicity of ketoconazole, escape velocity; type: cell-based, human; conditions: 1 μm ketoconazole, 1.5 hours of treatment
# Description: as §3
# CCRF-CEM cells = test: Experiment 14, fifth experiment: topotecan on sensitive cell line, escape velocity; type: cell-based; conditions: 10 μM topotecan, 6 hours
# Description: In a fifth experiment, two different cell lines obtained from ATCC which have varying degrees of sensitivity to topoisomerase I inhibitors such as camptothecin and topotecan were subject to Optophoretic analysis. A group of cells from a parental cell line CCRF-CEM that is sensitive to camptothecin and topotecan were incubated for 6 hours with 10 μM topotecan. Another group of cells from the cell line CEM/C2, which are 970-fold less sensitive to camptothecin and topotecan, were also incubated for 6 hours with 10 μM topotecan. Control cells from both the CCRF-CEM and CEM/C2 cell lines were also tested. The cells were incubated for six hours and prepared for testing in accordance with the procedures described above in the prior experiments. The cells were then loaded onto a cover slip containing agarose that was spin-coated onto the surface thereof. Escape velocity measurements were then taken using a 100 mW laser with a diameter of 28 pixels. […] Optophoretic analysis was thus able to score cross-resistance of camptothecin-resistant cell lines to topotecan, an analog of camptothecin.
# CEM/C2 cell line = conditions: cell lines obtained from ATCC; cited from earlier work
# U937 cells [9] = tested on: U937 cells; remark: listed apart in the source
# Description: Both groups of cells were incubated with compound in 0.1% DMSO (or simply 0.1% DMSO in the case of the control) for four hours. At the end of the incubation period, the cells were centrifuged down for 3-5 minutes at 5000 rpm in a Model V microcentrifuge (VWR scientific). The supernatant was then aspirated and the pellet resuspended in 1 ml PBS/1% BSA buffer plus 1:10 trypan blue. Escape velocity measurements were then taken of the cells.
# The different groups of cells were incubated for various time periods (3, 6, 9, and 24 hours) and escape velocity measurements were made. At the end of the incubation period, the cells were centrifuged down for five minutes at 5000 rpm. The supernatant was then removed and the pellet resuspended in 1 ml PBS/1% BSA buffer plus 1:10 trypan blue. The cells were then loaded onto a cover slip containing agarose that was spin-coated onto the surface thereof.
# The cells were incubated for four hours and prepped for testing in accordance with the procedures described above in the prior experiments. The cells were then loaded onto a cover slip containing agarose that was spin-coated onto the surface thereof. Escape velocity measurements were then taken using a 100 mW laser with a diameter of 21.5 pixels.
# The groups of cells were incubated (or simply 0.1% DMSO in the case of the control) for six hours. At the end of the incubation period, the cells were centrifuged down for five minutes at 5000 rpm. The supernatant was then removed and the pellet resuspended in 1 ml PBS/1% BSA buffer plus 1:10 trypan blue. The cells were then loaded onto a cover slip containing agarose that was spin-coated onto the surface thereof. Escape velocity measurements were then taken using a 100 mW laser with a diameter of 28 pixels. Escape velocity measurements were then taken of the cells.
# The groups of cells were incubated for six hours with compound (or simply DMSO in the case of the control). At the end of the incubation period, the cells were centrifuged down for five minutes at 5000 rpm. […]
smiles,measurement,setting,value
CN(C)CCCn1cc(C2=C(c3c[nH]c4ccccc34)C(=O)NC2=O)c2ccccc21 [Bisindolymalemide],average escape velocity,U937 cells [1]; 50 ng/ml bisindolymaleimide + 10 ng/ml PMA,15.1 μm/sec
same,"escape velocity, Ave.",U937 cells [1]; 50 ng/ml bisindolymaleimide,13.9
same,effect on the optophoretic shift in escape velocity caused by PMA,U937 cells [1]; 200 ng/ml BIMI for 30 minutes followed by 10 ng/ml PMA (FIG. 33),blocked the optophoretic shift in escape velocity
same,average escape velocity,U937 cells [1]; 200 ng/ml bisindolymaleimide + 10 ng/ml PMA,14.5 μm/sec
same,"escape velocity, Ave.",U937 cells [1]; 200 ng/ml bisindolymaleimide,14.0
"C[S+](C)[O-] [DMSO, dimethylsulfoxide]",time after treatment at which FACS detected a change in CD11b expression levels,[2],40 h
same,course of mean travel distance,HL-60 cells; 16 to 72 hours (FIG. 149),mean travel distance progressively decreased as time elapsed
same,time after treatment at which a noticeable decrease in mean travel distance was detected,HL-60 cells; fast scan,≤ 16 h
CC[C@H]1OC(=O)[C@H](C)[C@@H](O[C@H]2C[C@@](C)(OC)[C@@H](O)[C@H](C)O2)[C@H](C)[C@@H](O[C@@H]2O[C@H](C)C[C@H](N(C)C)[C@H]2O)[C@](C)(O)C[C@@H](C)C(=O)[C@H](C)[C@@H](O)[C@]1(C)O [Erythromycin],escape velocity after treatment,[3],same escape velocity as the untreated Erythromycin-sensitive strain
same,time at which a reduction in escape velocity can be seen,[4]; 5 μg/ml Erythromycin (FIG. 81),1 h
same,change of escape velocity over time,"[4]; 5 μg/ml Erythromycin, time zero, 30 minutes, 3 hours post-treatment (FIG. 80)",escape velocity of the Erythromycin-sensitive strain decreases
"Cc1ccc(NC(=O)c2ccc(CN3CCN(C)CC3)cc2)cc1Nc1nccc(-c2cccnc2)n1 [Gleevec, imatinib mesylate]",escape velocity as compared to non-treated cells,[5],significantly lower escape velocity
same,Mean Distance,EM-3 cells,13.199 μm
same,response of mean travel distance to varying concentration,"EM-3 cells; 0.06 to 4 μM Gleevec, 48 hours",dose-dependent response
Cc1oncc1C(=O)Nc1ccc(C(F)(F)F)cc1 [Leflunomide],effect on the increase in escape velocity caused by TNF,Jurkat cells,mitigate the increase in escape velocity caused by TNF
"O=C([O-])c1ccccc1O.[Na+] [Sodium Salicylate, sodium salicylate]",shift in escape velocities,"U937 cells [6]; 5 mM and 20 mM salicylic acid, 5 and 24 hours (FIG. 37)",slight but statistically significant shift in escape velocities
same,"escape velocity, Ave.","U937 cells [6]; 5 mM sodium salicylate, 5 hours",14.1
same,"escape velocity, Ave.","U937 cells [6]; 5 mM sodium salicylate, 24 hours",15.2
same,"escape velocity, Ave.","U937 cells [6]; 5 mM sodium salicylate, 47 hours",13.7
same,"escape velocity, Ave.","U937 cells [6]; 20 mM sodium salicylate, 5 hours",13.3
same,"escape velocity, Ave.","U937 cells [6]; 20 mM sodium salicylate, 24 hours",16.0
same,cell viability (trypan blue),"U937 cells [6]; 20 mM, 47 hours",all cells were dead
CN[C@@H]1C[C@H]2O[C@@](C)([C@@H]1OC)n1c3ccccc3c3c4c(c5c6ccccc6n2c5c31)C(=O)NC4 [Staurosporine],Mean Distance,EM-3 cells,9.250 μm
CC(=O)N1CCN(c2ccc(OCC3COC(Cn4ccnc4)(c4ccc(Cl)cc4Cl)O3)cc2)CC1 (stereo not drawn) [ketoconazole],mean travel distance,Chang liver cells [7],20.97 μm
same,escape velocity versus control,Chang liver cells [8],marked decrease in escape velocity
CC[C@@]1(O)C(=O)OCc2c1cc1n(c2=O)Cc2cc3c(CN(C)C)c(O)ccc3nc2-1 [topotecan],decrease in escape velocity,CCRF-CEM cells,larger decrease in escape velocity as compared to the CEM/C2 cells
same,fold less sensitive than parental CCRF-CEM,CEM/C2 cell line,970 fold
same,shift in escape velocity,"U937 cells [9]; 4 μg/ml, four hours (FIG. 54)",larger shift in escape velocity as compared to the camptothecin-treated cells
same,cell death,"U937 cells [9]; human, 24 h, 10 μM",virtually all of the treated U937 cells were dead
same,potency by escape velocity concentration curves,"U937 cells [9]; six hours, FIG. 65 versus FIG. 70",higher potency of topotecan as compared to camptothecin

# Reference: patent publication US20040121307A1, “Early detection of cellular differentiation using optophoresis” (Genoptix, Inc, priority 2002, published 2004)
